Consider 27 compounds from patent publication US5138069A (E. I. Du Pont de Nemours and Company, priority 1988, dated 1992).

Structures can show the parent of a compound that is named as a salt. Where two headings read alike, the source gives them in different places.

Assay [1] deals with Renal Hypertensive Rats. The assay is described as follows: Antihypertensive effects in renal hypertensive rats. It is filed as in vivo. The settings on record: Rattus norvegicus; for minimal effective dose at 10 mg/kg / minimal effective dose at 3 mg/kg: intravenous; for minimal effective dose at 10 mg/kg: 10 mg/kg or less; for minimal effective dose at 3 mg/kg / minimal effective dose at 30 mg/kg: Table 26. A digest of the protocol: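 Renal hypertensive rats (renin-driven AII elevation) dosed orally at 100 mg/kg and/or i.v. via jugular cannula at 10 mg/kg; a second set used 30 mg/kg oral and 3 mg/kg i.v. Arterial pressure recorded continuously via carotid cannula and compared with pretreatment levels.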

For assay [2], the target named is AII receptor. The assay is described as follows: Angiotensin II receptor binding (displacement of 3H-AII). The settings on record: read-out: Angiotensin II Receptor Binding IC50, rat adrenal cortical microsomes, 2 nM 3H-AII, 1 hour, room temperature. A digest of the protocol: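 The receptor source was rat adrenal cortical microsomes in Tris buffer, incubated with 2 nM ³H-AII plus or minus test compound for 1 h at room temperature. Bound and free ligand were separated by rapid filtration on glass-fibre filters. Filter-bound ³H-AII was counted by scintillation.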

Assay [3] deals with renal vasoconstrictor effect of NSAID. The following applies: dogs with non-hypotensive hemorrhage; cited from earlier work.

As for `CCCCc1nc(Cl)c(C=CCO)n1Cc1ccc(-c2ccccc2C(=O)O)cc1` [Example 314], in assay [1] (Table 25), the minimal effective dose – broadly, the smallest amount tested that counted as effective – at 10 mg/kg is below 10 mg/kg. Also, in assay [1] (Table 25, oral, 100 mg/kg or less), the minimal effective dose at 100 mg/kg was above 100 mg/kg. The IC50 – broadly, the concentration that gives 50% inhibition – in assay [2] (Table 25) amounted to 630 nM.
On to `CCCCc1nc(Cl)c(C(O)c2ccccc2)n1Cc1ccc(-c2ccccc2-c2nn[nH]n2)cc1` (stereo not drawn) [Example 317A, α-[2-n-butyl-4-chloro-1-[(2'-(1H-tetrazol-5-yl)biphenyl-4-yl)methyl]imidazol-5-yl]-α-phenylmethanol], for which the minimal effective dose at 3 mg/kg in assay [1] is below 3 mg/kg. This compound also registered a minimal effective dose at 30 mg/kg in assay [1] (oral) above 30 mg/kg. Besides, the IC50 in assay [2] (Table 26) was determined as 410 nM.
`CCCCc1nc(Cl)c(CO)n1Cc1ccc(-c2ccccc2C(=O)NS(=O)(=O)c2ccccc2C)cc1` [Example 319] had a minimal effective dose at 3 mg/kg in assay [1] below 3 mg/kg. Further, the minimal effective dose at 30 mg/kg in assay [1] (oral) was above 30 mg/kg. The IC50 in assay [2] (Table 26) was 91 nM.
In assay [1], `CCCc1nc(C)c(C=O)n1Cc1ccc(-c2ccccc2C(=O)O)cc1` [Example 320, 1-[(2'-Carboxybiphenyl-4-yl)methyl]-4-methyl-2-propylimidazole-5-carboxaldehyde] returned a minimal effective dose at 3 mg/kg below 3 mg/kg. The same compound returned a minimal effective dose at 30 mg/kg in assay [1] (oral) below 30 mg/kg. In addition, the IC50 in assay [2] (Table 26) was determined as 880 nM.
Turning to `CCCc1nc(C)c(CO)n1Cc1ccc(-c2ccccc2C(=O)O)cc1` [Example 321, 1-[(2'-Carboxybiphenyl-4-yl)methyl]-5-hydroxymethyl-4-methyl-2-propylimidazole.hydrochloride], in assay [1], the minimal effective dose at 3 mg/kg is below 3 mg/kg. For the same compound, in assay [1] (oral), the minimal effective dose at 30 mg/kg is above 30 mg/kg. Further, the concentration for half-maximal inhibition (IC50) in assay [2] (Table 26) was 1800 nM.
`CCCCc1nc(Cl)c(CO)n1-c1ccc(NC(=O)c2ccccc2NS(=O)(=O)C(F)(F)F)cc1` [Example 325, 2-n-Butyl-4-chloro-5-hydroxymethyl-1-[4-((N-trifluoromethanesulfonyl)-anthranilamido)phenyl]imidazole] displayed a minimal effective dose at 10 mg/kg in assay [1] (Table 25) below 10 mg/kg. Besides, the IC50 in assay [2] (Table 25) was determined as 730 nM.
In turn, `CCCCc1ncc(CO)n1-c1ccc(NC(=O)c2ccccc2NS(=O)(=O)C(F)(F)F)cc1` [Example 326, 2-n-butyl-5-hydroxymethyl-1-[4-((N-trifluoromethanesulfonyl)anthranilamido)phenyl]imidazole] registered a minimal effective dose at 10 mg/kg in assay [1] (Table 25) below 10 mg/kg. Moreover, the IC50 in assay [2] (Table 25) was 790 nM.
Consider `CCCCc1nc(Cl)c(C=NNS(=O)(=O)c2ccccc2)n1Cc1ccc(-c2ccccc2-c2nnn[nH]2)cc1` [Example 327, 2-n-Butyl-4-chloro-1-[(2'-(1H-tetrazol-5-yl)biphenyl-4-yl)methyl]-imidazole-5-carboxaldehyde, benzenesulfonylhydrazone], for which, in assay [1], the minimal effective dose at 3 mg/kg is above 3 mg/kg. The minimal effective dose at 30 mg/kg in assay [1] (oral) is above 30 mg/kg. For the same compound, the IC50 in assay [2] (Table 26) came out at 660 nM.
In the same order, the values of `CCCCc1nc(Cl)c(C=NNC2=NCCN2)n1Cc1ccc(-c2ccccc2-c2nnn[nH]2)cc1` [Example 327A] are below 3 mg/kg, below 30 mg/kg and 290 nM.
In assay [1], `CCCCc1nc(Cl)c(C=NNC2=NCCN2)n1Cc1cccc(-c2ccccc2-c2nnn[nH]2)c1` [Example 327D] yielded a minimal effective dose at 3 mg/kg above 3 mg/kg. The minimal effective dose at 30 mg/kg in assay [1] (oral) was above 30 mg/kg. Further, the IC50 in assay [2] (Table 26) came to 5200 nM.
In the same order, the values of `CCCc1nc(C(=O)O)c(C(=O)O)n1Cc1ccc(-c2ccccc2C(=O)O)cc1` [Example 328] are below 3 mg/kg, below 30 mg/kg and 6700 nM.
For `CCCc1nc(C(=O)O)c(C(=O)O)n1Cc1ccc(-c2ccccc2-c2nnn[nH]2)cc1` [Example 329], in assay [1], the minimal effective dose at 3 mg/kg was below 3 mg/kg. Also, the minimal effective dose at 30 mg/kg in assay [1] (oral) was below 30 mg/kg. Besides, the IC50 in assay [2] (Table 26) turned out to be 76 nM.
In the same order, the values of `CCCc1nc(C(=O)OC)c(C(=O)OC)n1Cc1ccc(-c2ccccc2-c2nnn[nH]2)cc1` [Example 333, 4,5-Dicarbomethoxy-2-n-propyl-1-[(2'-(1H-tetrazol-5-yl)biphenyl-4-yl)methyl]imidazole] are below 3 mg/kg, below 30 mg/kg and 51 nM.
Consider `CCCc1nc(C(=O)OC)c(CO)n1Cc1ccc(-c2ccccc2-c2nnn[nH]2)cc1` [Example 334, 4-Carbomethoxy-5-hydroxymethyl-2-n-propyl-1-[(2'-(1H-tetrazol-5-yl)biphenyl)-methyl]imidazole], for which the minimal effective dose at 3 mg/kg in assay [1] is below 3 mg/kg. The compound further had a minimal effective dose at 30 mg/kg in assay [1] (oral) below 30 mg/kg. Besides, the IC50 in assay [2] (Table 26) is 15 nM.
Regarding `CCCc1nc(C(=O)O)c(CO)n1Cc1ccc(-c2ccccc2-c2nnn[nH]2)cc1` [Example 335, 5-Hydroxymethyl-2-n-propyl-1-[(2'-(1H-tetrazol-5-yl)biphenyl)methyl]-imidazole-4-carboxylic acid], in assay [1], the minimal effective dose at 3 mg/kg is below 3 mg/kg. This compound registered a minimal effective dose at 30 mg/kg in assay [1] (oral) below 30 mg/kg. In assay [2] (Table 26), the IC50 amounted to 260 nM.
Compound `CCCCc1nc(Cl)c(CO)n1Cc1ccc(-c2ccccc2-c2[nH]nnc2C#N)cc1` [Example 336] gave a minimal effective dose at 3 mg/kg in assay [1] above 3 mg/kg. Moreover, in assay [1] (oral), the minimal effective dose at 30 mg/kg is above 30 mg/kg. Moreover, the IC50 in assay [2] (Table 26) was 280 nM.
In the same order, the values of `CCCCc1nc(CO)c(Cl)n1Cc1ccc(-c2ccccc2-c2nn[nH]c2C#N)cc1` [Example 337, 2-n-Butyl-5-chloro-1-[(2'-(5-cyano-1,2,3-triazol-4-yl)biphenyl-4-yl)methyl]-4-hydroxymethylimidazole] are below 3 mg/kg, above 30 mg/kg and 760 nM.
`CCCCc1nc(Cl)c(CO)n1Cc1ccc(-c2ccccc2-c2nn[nH]c2C(=O)OC)cc1` [Example 338, 2-n-Butyl-4-chloro-1-[(2'-(5-carbomethoxy-1,2,3-triazol-4-yl)biphenyl-4-yl)methyl]-5-hydroxymethylimidazole] displayed a minimal effective dose at 3 mg/kg in assay [1] above 3 mg/kg. Also, the minimal effective dose at 30 mg/kg in assay [1] (oral) was above 30 mg/kg. In assay [2] (Table 26), the IC50 was determined as 260 nM.
In the same order, the values of `CCCCc1nc(CO)c(Cl)n1Cc1ccc(-c2ccccc2-c2[nH]nnc2C(=O)OC)cc1` [Example 339, 2-n-Butyl-5-chloro-1-[(2'-(5-carbomethoxy-1,2,3-triazol-4-yl)biphenyl-4-yl)-methyl]-5-hydroxymethylimidazole] are below 3 mg/kg, below 30 mg/kg and 1700 nM.
Compound `CCCCc1nc(Cl)c(CO)n1Cc1ccc(-c2ccccc2-c2n[nH]c(C(F)(F)F)n2)cc1` [Example 340, 2-n-Butyl-4-chloro-5-hydroxymethyl-1-[(2'-(5-trifluoromethyl-1,2,4-triazol-3-yl)biphenyl-4-yl)methyl]imidazole] registered a minimal effective dose at 3 mg/kg in assay [1] below 3 mg/kg. The compound also had a minimal effective dose at 30 mg/kg in assay [1] (oral) below 30 mg/kg. Moreover, in assay [2] (Table 26), the IC50 came out at 370 nM.
In the same order, the values of `CCCCc1nc(Cl)c(CO)n1Cc1ccc(-c2c(C#N)cccc2-c2nnn[nH]2)cc1` [Example 343, 2-n-Butyl-4-chloro-1-[(2'-cyano-6'-(1H-tetrazol-5-yl)biphenyl-4-yl)methyl]-5-hydroxymethylimidazole] are below 3 mg/kg, above 30 mg/kg and 510 nM.
In the same order, the values of `CCCCc1nc(Cl)c(-c2nnn[nH]2)n1Cc1ccc(-c2ccccc2-c2nnn[nH]2)cc1` [Example 344, 2-n-Butyl-4-chloro-5-(1H-tetrazol-5-yl)-1-[(2'-(1H-tetrazol-5-yl)biphenyl-4-yl)methyl]-imidazole] are below 3 mg/kg, below 30 mg/kg and 160 nM.
Take `CCCCc1nc(Cl)c(-c2[nH]nnc2C(=O)O)n1Cc1ccc(-c2ccccc2-c2nnn[nH]2)cc1` [Example 345, 2-n-Butyl-5-(4-carboxy-1,2,3-triazol-5-yl)-4-chloro-1-[(2'-(1H-tetrazol-5-yl)biphenyl-4-yl)methyl]imidazole]: in assay [1], the minimal effective dose at 3 mg/kg is below 3 mg/kg. Moreover, the IC50 in assay [2] (Table 26) was 1100 nM.
`CCCCc1nc(Cl)c(CN2CCN(c3ccccc3OC)CC2)n1Cc1ccc(-c2ccccc2C(=O)O)cc1` [Example 346, 2-n-Butyl-1-[(2'-carboxybiphenyl-4-yl)methyl]-4-chloro-5-[(1-(2-methoxyphenyl)piperazin-4-yl)methyl]imidazole]: in assay [1] (Table 25), the minimal effective dose at 10 mg/kg is below 10 mg/kg. In addition, the IC50 in assay [2] (Table 25) is 740 nM.
`CCCCc1nc(Cl)c(C(=O)N2CCN(c3ccccc3OC)CC2)n1Cc1ccc(-c2ccccc2-c2nnn[nH]2)cc1` [Example 347, 2-n-Butyl-4-chloro-5-[4-(2-methoxyphenyl)piperazin-1-ylcarbonyl]-1-[(2'-(1H-tetrazol-5-yl)biphenyl-4-yl)methyl]imidazole]: the minimal effective dose at 3 mg/kg in assay [1] is below 3 mg/kg. The same compound had a minimal effective dose at 30 mg/kg in assay [1] (oral) below 30 mg/kg. For the same compound, the half-maximal inhibitory concentration (IC50) in assay [2] (Table 26) is 200 nM.
In the same order, the values of `CCCCc1nc(C(=O)N2CCN(c3ccccc3OC)CC2)c(Cl)n1Cc1ccc(-c2ccccc2-c2nnn[nH]2)cc1` [Example 348] are below 3 mg/kg, above 30 mg/kg and 1300 nM.
Turning to `C[C@H](CS)C(=O)N1CCC[C@H]1C(=O)O` [captopril, Captopril], the “effect on renal vasoconstrictor effect of indomethacin” value in assay [3] is listed as “reverse the renal vasoconstrictor effect of indomethacin in dogs”.
